Data from patent publication US20130133245A1, “OXYGENATE ADDITIVE FOR INTERNAL COMBUSTION ENGINE FUEL, FUEL COMPOSITION COMPRISING THE SAME AND IMPROVED PROCESS FOR PRODUCING HIGHLY METHYLATED GLYCEROL ETHERS” (priority 2011, published 2013).

How the values were obtained:
[1] = Density of oxygenate additive (main properties comparison)
[2] = Solubility / miscibility in diesel fuel; type: physicochemical
[3] = Solubility in gasoline or aviation turbine fuel; type: physicochemical

Molecule: COCCOCCOC [DGM, diethylene glycol dimethyl ether]
- Lower flammability limit (Lower flammability limit): 1.2 % vol
- Density [1]: 937 kg/m^3
- Lower heating value (Lower heating value): 24.5 kJ/g
- Heat of combustion (Heat of combustion): -2.52e+07 J/kg
- Flash point (Flash point): 70 °C

Molecule: COCC(COC)OC [GTME, glycerol trimethyl ether]
- solubility in diesel fuel ([2]; diesel fuel): ~100%
- dissolution in gasoline or aviation turbine fuel [3]: completely dissolved

Molecule: glycerol dimethyl ethers [GDMEs]
- miscibility with diesel fuel ([2]; too much amount mixed with diesel fuel): phase separation
